Experimental findings from patent US9102686B2, “5,6,7,8,9,10-hexahydro-6,10-epimino[1,2,4]triazolo[4,3-a]azocines as P2X7 modulators” (Janssen Pharmaceutica NV, priority 2013, dated 2015) are described below.

Each structure is given as a SMILES string.

Test [1] concerns the target T1, human P2X7 (Homo sapiens (Human), UniProt Q99572). Description: Radioligand binding, human P2X7-1321N1 cell membranes, tritiated A-804598. Conditions: human P2X7-1321N1 membranes, tracer tritiated A-804598, 1 hour 4° C. As for the experimental part: (§1) P2X7 Antagonism in Recombinant hP2X7 Cells: (a) Ca^2+ Flux (b) Radioligand Binding
(§2) (B) Radioligand binding: human or rat P2X7-1321N1 cells were collected and frozen @−80° C. On the day of the experiment, cell membrane preparations were made according to standard published methods. […] The compound can be prepared as described in the literature. […] The assay was terminated by filtration (GF/B filters pre-soaked with 0.3% PEI) and washed with washing buffer (Tris-HCl 50 mM). The IC50 generated in the binding assay was corrected for tracer concentration and affinity of the tracer to derive at the affinity (Ki) of the test compounds.

Test [2] has as its target T2, rat P2X7 (Rattus norvegicus (Rat), UniProt Q64663). Description: Ca2+ flux (FLIPR) in 1321N1 cells expressing recombinant rat P2X7 channel. Format: cell-based. Conditions: rat P2X7, 250 μM BzATP. As for the experimental part: as §1
(§3) (A) Ca^2+flux: 1321N1 cells expressing the recombinant human, rat or mouse P2X7 channel was cultured in HyQ DME/(HyClone/Dulbecco's Modified Eagle Medium) high glucose supplemented with 10% Fetal Bovine Serum (FBS) and appropriate selection marker. Cells were seeded at a density of 25000 cells/well (96-well clear bottom black walled plates) in 100 μl volume/well. On the day of the experiment, cell plates were washed with assay buffer, containing (in mM): 130 NaCl, 2 KCl, 1 CaCl2, 1 MgCl2, 10 HEPES, 5 glucose; pH 7.40 and 300 mOs. After the wash, cells were loaded with the Calcium-4 dye (Molecular Device) and incubated in the dark for 60 minutes. Test compounds were prepared at 250× the test concentration in neat DMSO. Intermediate 96-well compound plates were prepared by transferring 1.2 μL of the compound into 300 μL of assay buffer. A further 3× dilution occurred when transferring 50 μL/well of the compound plate to 100 μL/well in the cell plate. Cells were incubated with test compounds and dye for 30 minutes. […] The fluorescence change was measured 180 seconds after adding the agonist.

The target of test [3] is T2, rat P2X7. Briefly: Radioligand binding, rat P2X7-1321N1 cell membranes, tritiated A-804598. Conditions: rat P2X7-1321N1 membranes, tracer tritiated A-804598, 1 hour 4° C. The method, then:
as §1, §2

The target in test [4] is T1, human P2X7. Briefly: Ca2+ flux (FLIPR) in 1321N1 cells expressing recombinant human P2X7 channel. Type of test: cell-based. Conditions: human P2X7, 250 μM BzATP. As for the experimental part: as §1, §3
Background: Calcium flux is commonly read through the fluorescence of an indicator in the cells.

T2 sequence (Q64663 whole entry): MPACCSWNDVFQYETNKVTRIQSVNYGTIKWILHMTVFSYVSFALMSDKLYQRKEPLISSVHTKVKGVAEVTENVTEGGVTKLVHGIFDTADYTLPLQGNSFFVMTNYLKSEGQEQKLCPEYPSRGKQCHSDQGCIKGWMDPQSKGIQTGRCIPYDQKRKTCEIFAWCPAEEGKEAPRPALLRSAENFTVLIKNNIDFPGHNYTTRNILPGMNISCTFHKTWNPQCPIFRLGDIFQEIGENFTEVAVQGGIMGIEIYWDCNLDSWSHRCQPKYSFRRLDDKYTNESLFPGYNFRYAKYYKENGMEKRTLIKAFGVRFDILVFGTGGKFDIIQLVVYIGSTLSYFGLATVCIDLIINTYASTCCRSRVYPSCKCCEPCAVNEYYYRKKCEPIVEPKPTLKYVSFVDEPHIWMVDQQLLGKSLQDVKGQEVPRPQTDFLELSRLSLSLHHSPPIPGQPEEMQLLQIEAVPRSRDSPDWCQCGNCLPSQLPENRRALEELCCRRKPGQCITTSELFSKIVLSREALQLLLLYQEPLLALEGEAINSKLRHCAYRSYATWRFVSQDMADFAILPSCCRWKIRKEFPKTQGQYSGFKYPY
T1 sequence (Q99572 whole entry): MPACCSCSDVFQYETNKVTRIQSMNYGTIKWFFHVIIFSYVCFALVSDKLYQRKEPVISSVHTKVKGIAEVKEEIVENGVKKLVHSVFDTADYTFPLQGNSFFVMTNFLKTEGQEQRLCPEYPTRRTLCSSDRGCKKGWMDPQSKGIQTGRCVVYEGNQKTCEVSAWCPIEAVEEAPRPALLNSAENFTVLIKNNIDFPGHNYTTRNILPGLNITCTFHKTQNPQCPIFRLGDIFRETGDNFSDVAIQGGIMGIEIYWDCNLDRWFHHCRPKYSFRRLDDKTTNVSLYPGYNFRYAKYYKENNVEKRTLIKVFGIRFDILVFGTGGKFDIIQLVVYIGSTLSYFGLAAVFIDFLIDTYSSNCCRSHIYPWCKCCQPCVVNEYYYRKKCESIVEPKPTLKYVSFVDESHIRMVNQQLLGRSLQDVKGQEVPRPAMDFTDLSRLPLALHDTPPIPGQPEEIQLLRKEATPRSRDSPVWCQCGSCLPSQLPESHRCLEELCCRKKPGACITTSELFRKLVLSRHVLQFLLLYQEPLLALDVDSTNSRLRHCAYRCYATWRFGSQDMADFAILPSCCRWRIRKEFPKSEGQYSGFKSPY

Regarding `O=C(c1ccc(F)c(C(F)(F)F)c1Cl)N1[C@H]2CC[C@@H]1c1nnc(-c3cscn3)n1C2` [Example 52, (6S,9R)-10-{[2-Chloro-4-fluoro-3-(trifluoromethyl)phenyl]carbonyl}-3-(1,3-thiazol-4-yl)-6,7,8,9-tetrahydro-5H-6,9-epimino[1,2,4]triazolo[4,3-a]azepine], the inhibition constant (Ki) (in general, the dissociation constant of the complex between target and ligand, obtained from inhibition or displacement) at human P2X7 [1] stood at 31.6 nM; at rat P2X7 [3], 6.3 nM. In addition, the half-maximal inhibitory concentration (IC50) – broadly, the concentration that gives 50% inhibition – at rat P2X7 [2] stood at 131 nM; on human P2X7 [4], 10.2 nM.

For `Cc1cc(-c2nnc3n2C[C@@H]2CC[C@H]3N2C(=O)c2cccc(C(F)(F)F)c2Cl)[nH]n1` [Example 51, (6S,9R)-10-{[2-Chloro-3-(trifluoromethyl)phenyl]carbonyl}-3-(3-methyl-1H-pyrazol-5-yl)-6,7,8,9-tetrahydro-5H-6,9-epimino[1,2,4]triazolo[4,3-a]azepine], the Ki on human P2X7 [1] was 39.8 nM; on rat P2X7 [3] it was 7.9 nM. Further, the IC50 on rat P2X7 [2] was determined as 4100 nM; at human P2X7 [4], 14.4 nM.

In turn, `O=C(c1cccc(C(F)(F)F)c1Cl)N1[C@H]2CC[C@@H]1c1nnc(-c3cccs3)n1C2` [Example 61, (6S,9R)-10-{[2-Chloro-3-(trifluoromethyl)phenyl]carbonyl}-3-thiophen-2-yl-6,7,8,9-tetrahydro-5H-6,9-epimino[1,2,4]triazolo[4,3-a]azepine] came in with a Ki on human P2X7 [1] of 4 nM. For the same compound, the IC50 on rat P2X7 [2] was 10000 nM; at human P2X7 [4], 2.6 nM.

For the compound `Cc1ncsc1-c1nnc2n1C[C@@H]1CC[C@H]2N1C(=O)c1cccc(C(F)(F)F)c1Cl` [Example 59, (6S,9R)-10-{[2-Chloro-3-(trifluoromethyl)phenyl]carbonyl}-3-(4-methyl-1,3-thiazol-5-yl)-6,7,8,9-tetrahydro-5H-6,9-epimino[1,2,4]triazolo[4,3-a]azepine], the inhibitory constant (Ki) on human P2X7 [1] amounted to 126 nM. Also, the values for the 50% inhibitory concentration (IC50) at rat P2X7 [2] and at human P2X7 [4] were > 10000 nM and 100 nM, respectively.

For the compound `Cc1nc(-c2nnc3n2C[C@@H]2CC[C@H]3N2C(=O)c2cccc(C(F)(F)F)c2Cl)cs1` [Example 56, (6S,9R)-10-{[2-Chloro-3-(trifluoromethyl)phenyl]carbonyl}-3-(2-methyl-1,3-thiazol-4-yl)-6,7,8,9-tetrahydro-5H-6,9-epimino[1,2,4]triazolo[4,3-a]azepine], on human P2X7 [4], the IC50 is 30.8 nM.

`O=C(c1cccc(C(F)(F)F)c1Cl)N1[C@H]2CC[C@@H]1c1nnc(-c3cncs3)n1C2` [Example 57, (6S,9R)-10-{[2-Chloro-3-(trifluoromethyl)phenyl]carbonyl}-3-(1,3-thiazol-5-yl)-6,7,8,9-tetrahydro-5H-6,9-epimino[1,2,4]triazolo[4,3-a]azepine] showed an inhibition constant Ki at human P2X7 [1] of 35.5 nM. Moreover, the figures for the IC50 at rat P2X7 [2] and at human P2X7 [4] were > 10000 nM and 97.7 nM, respectively.

`O=C(c1cccc(C(F)(F)F)c1Cl)N1[C@H]2CC[C@@H]1c1nnc(-c3ncccn3)n1C2` [Example 46, (6S,9R)-10-{[2-Chloro-3-(trifluoromethyl)phenyl]carbonyl}-3-pyrimidin-2-yl-6,7,8,9-tetrahydro-5H-6,9-epimino[1,2,4]triazolo[4,3-a]azepine]: the figures for the Ki at human P2X7 [1] and on rat P2X7 [3] were 15.8 nM and 6.3 nM, respectively. Also, the concentration for half-maximal inhibition (IC50) on rat P2X7 [2] was found to be 253 nM; at human P2X7 [4], 15.2 nM.

In the case of `O=C(c1cccc(C(F)(F)F)c1Cl)N1[C@H]2CC[C@@H]1c1nnc(-c3cnccn3)n1C2` [Example 42, (6S,9R)-10-{[2-Chloro-3-(trifluoromethyl)phenyl]carbonyl}-3-pyrazin-2-yl-6,7,8,9-tetrahydro-5H-6,9-epimino[1,2,4]triazolo[4,3-a]azepine], the inhibitory constant (Ki) at human P2X7 [1] came out at 12.6 nM; at rat P2X7 [3], 7.9 nM. The IC50 at rat P2X7 [2] was found to be 251 nM; on human P2X7 [4], 20 nM.

`O=C(c1cccc(C(F)(F)F)c1Cl)N1[C@H]2CC[C@@H]1c1nnc(-c3ccccn3)n1C2` [Example 41, (6S,9R)-10-{[2-Chloro-3-(trifluoromethyl)phenyl]carbonyl}-3-pyridin-2-yl-6,7,8,9-tetrahydro-5H-6,9-epimino[1,2,4]triazolo[4,3-a]azepine]: the inhibition constant (Ki) on human P2X7 [1] came to 12.6 nM; at rat P2X7 [3], 7.9 nM. For the same compound, the results for the IC50 on rat P2X7 [2] and at human P2X7 [4] were 1580 nM and 6.3 nM, respectively.

`O=C(c1cccc(C(F)(F)F)c1Cl)N1[C@H]2CC[C@@H]1c1nnc(-c3ccc(F)cn3)n1C2` [Example 45, (6S,9R)-10-{[2-Chloro-3-(trifluoromethyl)phenyl]carbonyl}-3-(5-fluoropyridin-2-yl)-6,7,8,9-tetrahydro-5H-6,9-epimino[1,2,4]triazolo[4,3-a]azepine] showed an inhibitory constant (Ki) on human P2X7 [1] of 12.6 nM. Besides, the 50% inhibitory concentration (IC50) on human P2X7 [4] came out at 13.1 nM.

Regarding `O=C(c1ccnc(C(F)(F)F)c1Cl)N1[C@H]2CC[C@@H]1c1nnc(-c3ccc(Cl)s3)n1C2` [Example 60, (6S,9R)-3-(5-Chlorothiophen-2-yl)-10-{[3-chloro-2-(trifluoromethyl)pyridin-4-yl]carbonyl}-6,7,8,9-tetrahydro-5H-6,9-epimino[1,2,4]triazolo[4,3-a]azepine], affinity at human P2X7 [1] was put at a Ki of 21.9 nM. The figures for the IC50 on rat P2X7 [2] and on human P2X7 [4] were 2340 nM and 14.9 nM, respectively.

In the case of `O=C(c1cccc(C(F)(F)F)c1Cl)N1[C@H]2CC[C@@H]1c1nnc(-c3ccsc3)n1C2` [Example 58, (6S,9R)-10-{[2-Chloro-3-(trifluoromethyl)phenyl]carbonyl}-3-thiophen-3-yl-6,7,8,9-tetrahydro-5H-6,9-epimino[1,2,4]triazolo[4,3-a]azepine], the affinity at human P2X7 [1] corresponds to a Ki of 10 nM. The figures for the half-maximal inhibitory concentration (IC50) on rat P2X7 [2] and on human P2X7 [4] were 713 nM and 1.7 nM, respectively.

Take `O=C(c1cccc(C(F)(F)F)c1Cl)N1[C@H]2CC[C@@H]1c1nnc(-c3cccnc3)n1C2` [Example 48, (6S,9R)-10-{[2-Chloro-3-(trifluoromethyl)phenyl]carbonyl}-3-pyridin-3-yl-6,7,8,9-tetrahydro-5H-6,9-epimino[1,2,4]triazolo[4,3-a]azepine]: the Ki at human P2X7 [1] came out at 39.8 nM. For the same compound, the half-inhibitory concentration (IC50) at human P2X7 [4] was found to be 13.2 nM.

For the compound `O=C(c1ccc(F)c(Cl)c1Cl)N1[C@H]2CC[C@@H]1c1nnc(-c3cnccn3)n1C2` [Example 47, (6S,9R)-10-[(2,3-Dichloro-4-fluorophenyl)carbonyl]-3-pyrazin-2-yl-6,7,8,9-tetrahydro-5H-6,9-epimino[1,2,4]triazolo[4,3-a]azepine], affinity at human P2X7 [1] was put at a Ki of 10 nM. Besides, the half-maximal inhibitory concentration (IC50) on human P2X7 [4] was 20.3 nM.

Compound `O=C(c1cccc(C(F)(F)F)c1Cl)N1[C@H]2CC[C@@H]1c1nnc(-c3ccc[nH]3)n1C2` [Example 62, (6S,9R)-10-{[2-Chloro-3-(trifluoromethyl)phenyl]carbonyl}-3-(1H-pyrrol-2-yl)-6,7,8,9-tetrahydro-5H-6,9-epimino[1,2,4]triazolo[4,3-a]azepine] showed a Ki at human P2X7 [1] of 6.3 nM. The half-inhibitory concentration (IC50) at rat P2X7 [2] is > 10000 nM; at human P2X7 [4] it was 19.6 nM.

The compound `O=C(c1cccc(C(F)(F)F)c1Cl)N1[C@H]2CC[C@@H]1c1nnc(-c3ccc(Cl)s3)n1C2` [Example 55, (6S,9R)-3-(5-Chlorothiophen-2-yl)-10-{[2-chloro-3-(trifluoromethyl)phenyl]carbonyl}-6,7,8,9-tetrahydro-5H-6,9-epimino[1,2,4]triazolo[4,3-a]azepine] had a Ki on human P2X7 [1] of 25.1 nM. Moreover, at human P2X7 [4], the concentration for half-maximal inhibition (IC50) amounted to 17.1 nM.
